Reference: patent US11419806B2, “Prebiotic oral care methods using a saccharide” (Colgate-Palmolive Company, priority 2013, dated 2022)

Legend:
Assay in all cases: Phenotype microarray metabolic activity
Format in all cases: cell-based
Prevotella intermedia = conditions: P intermedia
Protocol: (§1) The extent of metabolic activity of the tested bacteria in the presence of the above-mentioned saccharides after 24 hours and 48 hours was investigated through a high throughput phenotype microarray system (PM) for microbial cells (Biolog Inc.). Each PM can contain up to 95 different biochemical compounds (e.g. saccharides) that may act as substrates for bacteria as well as one negative control, not containing the substrates. Microarray plates were used in which the different wells of each plate were pre-loaded (by the manufacturer, Biolog Inc.) with different saccharides to be tested. Each bacterial species was tested using a separate microarray plate. Thus, a single bacterial species was tested with a variety of saccharides on each particular plate. The microarrays are based on redox technology, using cell respiration as a universal reporter. Active cell respiration results in the reduction of a tetrazolium dye and in the formation of a strong color—for example, when using the tetrazolium dye “Biolog Redox Dye Mix D”, the color changes from transparent/colorless to purple when the dye is reduced. The observation of this color change indicates which of the substrates improve the metabolic activity and health of the cells.
(§2) Each bacterial species was collected from blood agar plates (incubated for 48 hours anaerobically at 37° C.) and transferred to an IF-0 Base inoculation fluid (Biolog Inc.), which is a nutritionally poor medium. The resulting cell suspension was adjusted to a transmittance of 42% (relative to the transmittance of the base inoculation fluid with no bacterial species present) at 492 nm using a BioRad SmartSpec 3000 Photometer (the adjustment being effected by adding either further inoculation fluid or further bacteria until the transmittance of 42% was achieved). A 1:5 dilution of this suspension was prepared by mixing 3 mL of the 42% transmittance cell suspension with 15 mL of an inoculation fluid (which inoculation fluid was formed by mixing 11.6 mL sterile water, 62.5 mL IF-0 base inoculation fluid and 0.9 mL of the tetrazolium dye “Biolog Redox Dye mix D”), resulting in a final cell density which was equal to 85% transmittance using a BioRad SmartSpec 3000 Photometer. For each of the saccharides tested, the microarray plate (obtained from the supplier (Biolog Inc.) with saccharides already present in the relevant wells in powder form) was directly inoculated with 100 μL/well of this 85% transmittance cell suspension.
(§3) All plates were incubated in an anaerobic atmosphere at 37° C. Color changes were measured spectrophotometrically at 492 nm (Thermo Scientific Multiskan Ascent) at 24 hrs and 48 hrs using the same plate at both time points. […] After 24 hrs and 48 hrs under continuous shaking in a Multiscan microplate reader, the optical density (OD) of the synthetic medium at 24 hours and 48 hours was measured (using the microplate reader) at a wavelength of 492 nm for each combination of bacterium/saccharide, and for each of their respective controls (i.e. which contained the particular bacterium but no saccharide).
(§4) The experiment was carried out three times for each combination of bacterium with saccharide, with each repeat being carried out on a different day (thus providing three biological replicas). The controls were also carried out three times, as above. The values shown are the average (mean) of the three single values obtained (as detailed above) for each combination of bacterium with saccharide, at 24 hrs and at 48 hrs.

Streptococcus salivarius = conditions: S salivarius
Protocol: as §1, §2, §3, §4

Streptococcus mutans = conditions: S mutans
Protocol: as §1, §2, §3, §4

Actinomyces viscosus = conditions: A viscosus
Protocol: as §1, §2, §3, §4

S sanguinis = system: S sanguinis
Protocol: as §1, §2, §3, §4

Veillonella parvula = conditions: V parvula
Protocol: as §1, §2, §3, §4

Porphyromonas gingivalis = conditions: P gingivalis
Protocol: as §1, §2, §3, §4

Fusobacterium nucleatum = conditions: F nucleatum
Protocol: as §1, §2, §3, §4

Streptococcus sobrinus = conditions: S sobrinus
Protocol: as §1, §2, §3, §4

Actinomyces naeslundii = conditions: A naeslundii
Protocol: as §1, §2, §3, §4

Streptococcus gordonii = conditions: S gordonii
Protocol: as §1, §2, §3, §4

[1] = system: Aggregatibacter actinomycetemcomitans; conditions: A actinomycetemcomitans
Protocol: as §1, §2, §3, §4

Tannerella forsythia = conditions: T forsythia
Protocol: as §1, §2, §3, §4

Capnocytophaga sputigena = conditions: C sputigena
Protocol: as §1, §2, §3, §4

Streptococcus mitis = conditions: S mitis
Protocol: as §1, §2, §3, §4

Row | Structure (SMILES) | metabolic activity: OD 492 nm divided by OD of control (control = 1) (Prevotella intermedia; 24 hrs) | metabolic activity: OD 492 nm divided by OD of control (control = 1) (Prevotella intermedia; 48 hrs) | metabolic activity: OD 492 nm divided by OD of control (control = 1) (Streptococcus salivarius; 24 hrs) | metabolic activity: OD 492 nm divided by OD of control (control = 1) (Streptococcus salivarius; 48 hrs) | metabolic activity: OD 492 nm divided by OD of control (control = 1) (Streptococcus mutans; 24 hrs) | metabolic activity: OD 492 nm divided by OD of control (control = 1) (Streptococcus mutans; 48 hrs) | metabolic activity: OD 492 nm divided by OD of control (control = 1) (Actinomyces viscosus; 24 hrs) | metabolic activity: OD 492 nm divided by OD of control (control = 1) (Actinomyces viscosus; 48 hrs) | metabolic activity: OD 492 nm divided by OD of control (control = 1) (S sanguinis; 24 hrs) | metabolic activity: OD 492 nm divided by OD of control (control = 1) (S sanguinis; 48 hrs) | metabolic activity: OD 492 nm divided by OD of control (control = 1) (Veillonella parvula; 24 hrs) | metabolic activity: OD 492 nm divided by OD of control (control = 1) (Veillonella parvula; 48 hrs) | metabolic activity: OD 492 nm divided by OD of control (control = 1) (Porphyromonas gingivalis; 24 hrs) | metabolic activity: OD 492 nm divided by OD of control (control = 1) (Porphyromonas gingivalis; 48 hrs) | metabolic activity: OD 492 nm divided by OD of control (control = 1) (Fusobacterium nucleatum; 24 hrs) | metabolic activity: OD 492 nm divided by OD of control (control = 1) (Fusobacterium nucleatum; 48 hrs) | metabolic activity: OD 492 nm divided by OD of control (control = 1) (Streptococcus sobrinus; 24 hrs) | metabolic activity: OD 492 nm divided by OD of control (control = 1) (Streptococcus sobrinus; 48 hrs) | metabolic activity: OD 492 nm divided by OD of control (control = 1) (Actinomyces naeslundii; 24 hrs) | metabolic activity: OD 492 nm divided by OD of control (control = 1) (Actinomyces naeslundii; 48 hrs) | further results
1 | O[C@H]1[C@H](O)[C@@H](O)[C@H](O)[C@@H](O)[C@H]1O [Myo-Inositol, (1R,2R,3S,4S,5R,6S)-cyclohexane-1,2,3,4,5,6-hexol] | 1.0174 | 1.0226 | 0.9641 | 0.8260 | 0.8961 | 0.8221 | 4.3733 | 4.6590 | 0.9436 | 1.0400 | 1.0283 | 1.0829 | 0.8077 | 0.7871 | 0.9063 | 0.8999 | 0.9699 | 0.9399 | 3.8627 | 4.5573 | metabolic activity: OD 492 nm divided by OD of control (control = 1) (Streptococcus gordonii; 24 hrs): 0.8556; metabolic activity: OD 492 nm divided by OD of control (control = 1) (Streptococcus gordonii; 48 hrs): 0.8202; metabolic activity: OD 492 nm divided by OD of control (control = 1) ([1]; 24 hrs): 1.3215; metabolic activity: OD 492 nm divided by OD of control (control = 1) ([1]; 48 hrs): 1.5191; metabolic activity: OD 492 nm divided by OD of control (control = 1) (Tannerella forsythia; 24 hrs): 0.9597; metabolic activity: OD 492 nm divided by OD of control (control = 1) (Tannerella forsythia; 48 hrs): 0.9564; metabolic activity: OD 492 nm divided by OD of control (control = 1) (Capnocytophaga sputigena; 24 hrs): 0.5471; metabolic activity: OD 492 nm divided by OD of control (control = 1) (Capnocytophaga sputigena; 48 hrs): 0.8107; metabolic activity: OD 492 nm divided by OD of control (control = 1) (Streptococcus mitis; 24 hrs): 1.0571; metabolic activity: OD 492 nm divided by OD of control (control = 1) (Streptococcus mitis; 48 hrs): 0.9877
2 | CC(=O)N[C@H](C=O)[C@@H](O)[C@H](O)[C@H](O)CO [N-acetyl-D-mannosamine, 2-acetamido-2-deoxy-D-mannose] | 0.9878 | 0.9805 | 1.0589 | 0.9795 | 1.0429 | 1.0176 | 0.9778 | 1.0151 | 2.9770 | 3.0358 | 0.9189 | 0.9284 | 0.7968 | 0.8296 | 1.0897 | 1.0886 | 1.1993 | 1.1453 | 1.4397 | 1.7022 | metabolic activity: OD 492 nm divided by OD of control (control = 1) (Streptococcus gordonii; 24 hrs): 1.6021; metabolic activity: OD 492 nm divided by OD of control (control = 1) (Streptococcus gordonii; 48 hrs): 2.3739; metabolic activity: OD 492 nm divided by OD of control (control = 1) ([1]; 24 hrs): 1.7369; metabolic activity: OD 492 nm divided by OD of control (control = 1) ([1]; 48 hrs): 2.1360; metabolic activity: OD 492 nm divided by OD of control (control = 1) (Tannerella forsythia; 24 hrs): 0.9666; metabolic activity: OD 492 nm divided by OD of control (control = 1) (Tannerella forsythia; 48 hrs): 0.9443; metabolic activity: OD 492 nm divided by OD of control (control = 1) (Capnocytophaga sputigena; 24 hrs): 1.1116; metabolic activity: OD 492 nm divided by OD of control (control = 1) (Capnocytophaga sputigena; 48 hrs): 1.0780; metabolic activity: OD 492 nm divided by OD of control (control = 1) (Streptococcus mitis; 24 hrs): 3.4298; metabolic activity: OD 492 nm divided by OD of control (control = 1) (Streptococcus mitis; 48 hrs): 3.0447
